Consider three substances from patent US20160272691A1, “COMPOSITIONS AND METHODS FOR TREATING CONDITIONS ASSOCIATED WITH y-[sequence]” (NDSU RESEARCH FOUNDATION, priority 2013, published 2016).

No end group written: not given here.

One assay addresses T1, human Bcl-XL (Homo sapiens, UniProt Q07817, N52D/N66D).
T1 construct: The His6-tagged Bcl-XL (residues 1-208, N52D, N66D) were expressed in E. coli; His6 (C); made in house; host or cells: E. coli BL21(DE3)pLysS
The experiment in a line: Isothermal titration calorimetry, binding of Beclin 1 BH3D-derived peptides to Bcl-XL. The following applies: ITC. The source says: (§1) Various Bcl-2 homologs lacking the C-terminal transmembrane helix were cloned and expressed to enable purification of soluble constructs identical to those used for previous structural studies. γHV68 M11 residues 1-136 was expressed and purified. The double mutant variant of Bcl-XL (N52D, N66D) was created by two rounds of site-directed mutagenesis using the QuikChange II Site-Directed Mutagenesis Kit (Agilent Technologies), then cloned, along with a C-terminal His6-tag for purification, into the NdeI and NotI restriction sites of pET 29b. The His6-tagged Bcl-XL (residues 1-208, N52D, N66D) were expressed in E. coli strain BL21(DE3)pLysS, and soluble protein in the cell lysate was purified to homogeneity by Immobilized Metal Affinity Chromatography using two 5 mL His-Select columns (GE Healthcare) linked in tandem, followed by Ion-Exchange Chromatography using a Mono Q HR 10/10 column (GE Healthcare) and Size-Exclusion Chromatography using a 16/60 preparative Superdex 75 column (GE Healthcare).
(§2) Various Beclin 1 BH3D-derived peptides, were chemically synthesized, and HPLC purified to >95% purity, with peptide purity confirmed by electrospray mass spectrometry (EZBioLabs/RSSynthesis/Protein Chemistry Technology Core at the University of Texas Southwestern Medical Center, Dallas).
(§3) Isothermal titration calorimetry was performed using a Nano ITC Low Volume (TA Instruments). For all ITC experiments, samples were loaded into separate dialysis cassettes, and dialyzed into ITC buffer. The ITC buffer for all experiments involving γHV68 M11 was 50 mM HEPES, pH 7.5, 250 mM NaCl and 2 mM β-mercaptoethanol and for human Bcl-XL was 25 mM HEPES, pH 7.5, 100 mM NaCl and 2 mM β-mercaptoethanol. ITC was performed at 25° C. with 25 injections of 2 μL each. Data were analyzed using NanoAnalyze Software (TA Instruments), with an independent model.

For the next assay, the target named is T2, γHV68 M11 (Murid herpesvirus 4, UniProt P89884).
T2 construct: γHV68 M11 residues 1-136 was expressed and purified; made in house
The experiment in a line: biochemical. The class given is binding, murine γHV68. The following applies: for ΔG, M11 / ΔH, M11 / ΔS, M11: ITC, 25° C., Table 1.
Source text: as §1, §2, §3

The target of the next assay is T3, M11 (Murid herpesvirus 4, UniProt P89884).
T3 construct: expressed in transfected cells; host or cells: MCF7 human breast carcinoma cells
T3 sequence (P89884 whole entry, looked up): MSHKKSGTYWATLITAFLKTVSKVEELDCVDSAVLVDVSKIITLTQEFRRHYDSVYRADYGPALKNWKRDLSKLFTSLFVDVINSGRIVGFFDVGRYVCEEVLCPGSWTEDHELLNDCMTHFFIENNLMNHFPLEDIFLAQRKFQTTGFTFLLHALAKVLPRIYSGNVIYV
Description: Autophagy assay (GFP-LC3 puncta), M11-mediated down-regulation of autophagy in MCF7 cells. The assay is classed as cell-based, murine γHV68. The following applies: cells that transiently express M11 in addition to Beclin 1; p=0.0010 treated versus untreated. Here is the method: (§4) Quantification of the fluorescent autophagosomes in MCF7 cells co-transfected with GFP-LC3 (1.6 μg), Beclin 1 (1.2 μg), and either Bcl-XL (1.2 μg) or M11(1.2 μg) expression plasmids (4 μg plasmids total) was done using an inverted AxioObserver (Zeiss). Cells were cultured in DMEM with 10% fetal calf serum (growth medium) in 8-well slides (Millipore) and transfected at 80% confluence with Lipofectamine (Invitrogen). After transfection, cells were either starved overnight in Earle's balanced salt solution (EBSS, starvation medium), or grown in nutrient-rich media with the addition of 2×EAA (essential amino acids) and 2×NEAA (nonessential amino acids) (nutrient rich medium) in the absence or presence of 1 mM peptides if indicated. The number of GFP-LC3 puncta per GFP-LC3 positive cell was assessed by counting a minimum of 50 cells via Image ProPlus for duplicate samples per condition in three independent experiments. The significance of alterations in autophagy levels were determined by a two-tailed, heteroscedastic student's t-test, wherein p≦0.05 is considered significant.
(§5) Lastly, whether the DM peptide would specifically prevent M11-mediated down-regulation, but not Bcl-XL-mediated down-regulation of Beclin 1-dependent autophagy in cells was investigated. […]

For another assay, the target named is T4, Bcl-XL (Homo sapiens, UniProt Q07817).
T4 construct: expressed in transfected cells; host or cells: MCF7 human breast carcinoma cells
Description: Autophagy assay (GFP-LC3 puncta), Bcl-XL-mediated down-regulation of autophagy in MCF7 cells. The assay is classed as cell-based. Particulars: cells that transiently express Bcl-XL in addition to Beclin 1; p=0.92294 treated versus untreated. Here is the method: as §4, §5

The next assay concerns MCF7 cells. The experiment in a line: Autophagy assay (GFP-LC3 puncta) in MCF7 cells without Bcl-XL or M11. The assay is classed as cell-based, human. Here is the method:
as §4, §5

T1 sequence (Q07817 1-208 N52D/N66D): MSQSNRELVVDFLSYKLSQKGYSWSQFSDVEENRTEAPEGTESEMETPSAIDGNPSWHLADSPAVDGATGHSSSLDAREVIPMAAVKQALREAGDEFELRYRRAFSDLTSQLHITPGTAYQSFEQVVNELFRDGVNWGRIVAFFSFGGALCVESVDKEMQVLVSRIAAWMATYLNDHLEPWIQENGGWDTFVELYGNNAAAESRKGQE
T4 sequence (Q07817 whole entry): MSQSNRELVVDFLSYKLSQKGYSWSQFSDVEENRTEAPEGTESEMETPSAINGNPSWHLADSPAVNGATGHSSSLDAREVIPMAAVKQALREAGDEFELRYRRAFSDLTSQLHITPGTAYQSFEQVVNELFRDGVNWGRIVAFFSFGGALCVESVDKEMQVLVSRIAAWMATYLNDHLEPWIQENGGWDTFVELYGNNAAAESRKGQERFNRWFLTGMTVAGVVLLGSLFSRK

For “GSGTMENLSRRLKVTEALFDIMSGQT [G120E + D121A]”, the “binding to Bcl-XL (in words)” value at human Bcl-XL is listed as “does not bind”. Also, at γHV68 M11, the Kd amounted to 6430 ± 150 nM; the “ΔG, M11” value is -7.079 ± 0.014 kcal/mol; the “ΔH, M11” value was -14.9 ± 0.65 kcal/mol; the “ΔS, M11” value is −109.81 ± 9.28 J/K · mol. Besides, at γHV68 M11 (relative to G120E peptide), the “fold better binding to M11 compared to the G120E peptide” value is reported as around 5.7 fold. Also, the “fold weaker binding to M11 compared to WT” value on γHV68 M11 (relative to WT BH3D) was around 4.7 fold.
Take “GSGTMENLSRRLKVTGDLFDIMSGQT [WT, reference compound]”: at human Bcl-XL (25° C., Table 1), the “ΔG, Bcl-XL” value was -7.787 ± 0.055 kcal/mol; the “ΔH, Bcl-XL” value was -10.41 ± 0.344 kcal/mol; the “ΔS, Bcl-XL” value is recorded as −36.89 ± 4.53 J/K · mol. Besides, binding on human Bcl-XL (25° C., Table 1, cell "No" wraps to "Binding" in the next grid row (= No Binding)) was characterised by a dissociation constant (Kd) of 1950 ± 190 nM. Besides, at γHV68 M11, binding was characterised by a dissociation constant (Kd) of 1380 ± 410 nM; the “ΔG, M11” value is -8.009 ± 0.17 kcal/mol; the “ΔH, M11” value is -16.96 ± 1.53 kcal/mol; the “ΔS, M11” value is listed as −125.72 ± 22.53 J/K · mol. For the same substance, at γHV68 M11 (M11 versus Bcl-XL), the “TΔSapp for binding to M11, fold lower than for binding to Bcl-XL” value is listed as around 4 fold and the “ΔHapp for binding to M11, fold higher than for binding to Bcl-XL” value is around 2 fold.
Take “TAT-DM peptide: HIV-1 TAT protein transduction domain attached via a diglycine linker to the N-terminus of the DM peptide (YGRKKRRQRRRGGGSGTMENLSRRLKVTEALFDIMSGQT)”: the “autophagy levels compared to untreated cells” value in the assay with M11 is “markedly increases autophagy levels”. Besides, in the assay with Bcl-XL, the “effect on autophagy compared to untreated cells” value is given as “insignificant effect”. Moreover, in the assay with MCF7 cells (MCF7 cells, nutrient-rich or starvation conditions, peptide treatment), the levels of autophagy entry is listed as “did not increase levels of autophagy”. Further, the “autophagy levels relative to untreated cells” value in the assay on MCF7 cells (cells that express Beclin 1, but not Bcl-XL or M11, p=0.03383 treated versus untreated) was “only a slight elevation in autophagy levels”.

Usually Kd stands for the equilibrium constant for the complex coming apart.
